Results as given in US10919785B2, “Hydraulic conveyor of floating objects provided with a device for sanitising conveying composition, plant provided with such a conveyor and sanitising method” (MAF AGROBOTIC, priority 2016, dated 2021).

Assay: Example 5: pilot device, degradation of four pesticides (FIG. 6)
Format: physicochemical
Conditions: initial boscalid 250, thiacloprid 100, fludioxonil 100, pyraclostrobin 125 μg/l; initial hydrogen peroxide 2 μg/l; 6 m^3/h, five lamps on
From the text: A semi-industrial pilot device in accordance with one aspect of the invention comprises a tank for recirculating water to be treated of a volume of 1000 l, a circulation pump ensuring a circulation flow of the water to be treated in a sanitising device with a flow rate between 4 m^3 to 8 m^3/h. The sanitising device comprises a photolysis chamber comprising an inlet for water from the recirculation tank and an outlet for sanitised water directed to the recirculation tank. The photolysis chamber is formed of a rigid tubular envelope, of which the external wall is opaque to light and forming an inner space suitable for receiving five fluorescent tubes with a longitudinal axis extending in parallel with the longitudinal axis of the rigid tubular envelope. The inner volume of the decontamination reactor is in the order of […].
The five fluorescent tubes are tubes of 200 W emitting light at a wavelength of 254 nm and arranged longitudinally in the tubular envelope at the five points of a regular pentagon and in contact with the water to be treated flowing in the photolysis chamber. In this configuration of the sanitising device, the water to be sanitised flowing in contact with the five fluorescent tubes is subjected to substantially homogeneous illumination in the order of 500 mJ/cm^2 for a circulation flow rate of water to be sanitised in the order of 6 m^3/h. The semi-industrial pilot device also comprises a tank for storing an aqueous solution of hydrogen peroxide (H2O2) provided with a pump for distributing said solution in the circulation flow of water to be sanitised issuing into the circuit of water to be sanitised upstream of and in proximity to the photolysis chamber. The concentration of the hydrogen peroxide in the aqueous solution of hydrogen peroxide is between 2 m g/l and 13 mg/l. The set-point flow rate of the pump for distributing solution of H2O2 is kept at 4 l/h.
A study was carried out in a semi-industrial pilot device as described above on the degradation of boscalid, thiacloprid, fludioxonil and pyraclostrobin. […]

SMILES	degraded within 1 hour
N#Cc1c[nH]cc1-c1cccc2c1OC(F)(F)O2 [fludioxonil]	90%
COC(=O)N(OC)c1ccccc1COc1ccn(-c2ccc(Cl)cc2)n1 [pyraclostrobin]	85%
N#C/N=C1\SCCN1Cc1ccc(Cl)nc1 [thiacloprid]	more than 95%
